This passage reports EC50 results from US20150307461A1, “ANTIVIRAL COMPOUNDS” (priority 2012, published 2015).

SMILES strings stand for the structures.

What all share (experiment): microbe, parasite or virus in culture
Test [1] deals with Pseudotyped HCV GT1a particles (HCVpp). Type of test: cell-based, HCV GT1a H77 strain. As to conditions: Hepatitis C virus, 72 h, read-out: HCVpp GT-1a (EC50, μM).
Test [2] concerns Pseudotyped HCV GT1b particles (HCVpp). Type of test: cell-based, HCV GT1b Con1 strain. Conditions: Hepatitis C virus, 72 h, read-out: HCVpp GT-1b (EC50, μM).
For test [3], the system named is pseudotyped VSV G particles (VSVpp). In kind it is cell-based. Conditions: Vesicular stomatitis virus, 72 h, read-out: VSVpp (EC50, μM).

For orientation: EC50 means the concentration needed to bring the measured effect to its halfway point.

On to `N#Cc1cc(Cl)cc(Nc2n[nH]c(N)n2)c1` [Compound I-48, 3-(5-Amino-1H-[1,2,4]triazol-3-ylamino)-5-chloro-benzonitrile], for which the EC50 in test [1] came to 0.558 µM; in test [2] it was 5.65 µM; in test [3], 100 µM.
For the compound `N#Cc1c(Cl)cc(Nc2n[nH]c(N)n2)cc1Cl` [Compound I-2, 4-(5-Amino-1H-[1,2,4]triazol-3-ylamino)-2,6-dichloro-benzonitrile], the EC50 in test [1] is 0.009 µM; in test [2] it was 0.277 µM; in test [3], 64.6 µM.
The matching figures for `Nc1nc(Nc2ccc(OCc3ccccc3)c(Cl)c2)n[nH]1` [Compound I-37, N*3*-(4-Benzyloxy-3-chloro-phenyl)-1H-[1,2,4]triazole-3,5-diamine]: 0.92 µM, 13.4 µM and 33.3 µM.
`CNS(=O)(=O)c1ccc(Nc2n[nH]c(N)n2)cc1` [Compound I-22, 4-(5-Amino-1H-[1,2,4]triazol-3-ylamino)-N-methyl-benzenesulfonamide]: the EC50 in test [1], in test [2] and in test [3] was 100 µM throughout.
As to `Nc1nc(Nc2cccc(OC(F)(F)F)c2)n[nH]1` [Compound I-52, N^3-(3-Trifluoromethoxy-phenyl)-1H-[1,2,4]triazole-3,5-diamine], the results for the EC50 in test [1], in test [2] and in test [3] were 2.39 µM, 12.6 µM and 100 µM, respectively.
The like results for `Nc1nc(Nc2cccc(S(F)(F)(F)(F)F)c2)n[nH]1` [Compound I-70, N*3*-(3-pentafluorosulfur-phenyl)-1H-[1,2,4]triazole-3,5-diamine] were, in that order, 0.152 µM, 1.1 µM and 100 µM.
For the compound `Nc1nc(Nc2ccc([N+](=O)[O-])c(Cl)c2)n[nH]1` [Compound I-8, N*3*-(3-Chloro-4-nitro-phenyl)-1H-[1,2,4]triazole-3,5-diamine], the EC50 is 0.141 µM in test [1], 1.15 µM in test [2] and 98.1 µM in test [3].
As for `Nc1nc(Nc2ccc(S(N)(=O)=O)cc2)n[nH]1` [Compound I-25, 4-(5-Amino-1H-[1,2,4]triazol-3-ylamino)-benzenesulfonamide], the half-maximal effective concentration (EC50) was 86.4 µM in test [1], 100 µM in test [2] and 100 µM in test [3].
In the case of `C#Cc1ccc(Nc2n[nH]c(N)n2)cc1Cl` [Compound I-9, N*3*-(3-Chloro-4-ethynyl-phenyl)-1H-[1,2,4]triazole-3,5-diamine], the values for the EC50 in test [1], in test [2] and in test [3] were 0.161 µM, 3.08 µM and 45.5 µM, respectively.
Take `Nc1nc(Nc2ccc(Cl)c([N+](=O)[O-])c2)n[nH]1` [Compound I-13, N*3*-(4-Chloro-3-nitro-phenyl)-1H-[1,2,4]triazole-3,5-diamine]: the concentration for a half-maximal effect (EC50) in test [1] was determined as 0.539 µM; in test [2] it was 4.85 µM; in test [3], 100 µM.
Consider `CC(C)(C)C#Cc1c(Cl)cc(Nc2n[nH]c(N)n2)cc1Cl` [Compound I-79, N^3-[3,5-Dichloro-4-(3,3-dimethyl-but-1-ynyl)-phenyl]-1H-[1,2,4]triazole-3,5-diamine], for which the EC50 was 0.051 µM in test [1], 3.31 µM in test [2] and 66 µM in test [3].
The like results for `Nc1nc(Nc2cc(Cl)c(I)c(Cl)c2)n[nH]1` [Compound I-3, N^3-(3,5-Dichloro-4-iodo-phenyl)-1H-[1,2,4]triazole-3,5-diamine] were, in that order, 0.012 µM, 0.386 µM and 32.7 µM.
The like results for `CN(C)C(=O)c1ccc(Nc2n[nH]c(N)n2)cc1` [Compound I-24, 4-(5-Amino-1H-[1,2,4]triazol-3-ylamino)-N,N-dimethyl-benzamide] were, in that order, 100 µM, 100 µM and 100 µM.
`Nc1nc(Nc2ccc(S(=O)(=O)C(F)(F)F)cc2)n[nH]1` [Compound I-17, N*3*-(4-Trifluoromethanesulfonyl-phenyl)-1H-[1,2,4]triazole-3,5-diamine]: the EC50 in test [1] amounted to 12.6 µM; in test [2] it was 14.2 µM; in test [3], 100 µM.
For `CC(C)(C)c1cc(Nc2n[nH]c(N)n2)ccc1C#N` [Compound I-16, 4-(5-Amino-1H-[1,2,4]triazol-3-ylamino)-2-tert-butyl-benzonitrile], the EC50 in test [1] was found to be 5.34 µM; in test [2], 16.1 µM; in test [3], 100 µM.
In the case of `CC(C)(C)C#Cc1ccc(Nc2n[nH]c(N)n2)cc1Cl` [Compound I-80, N^3-[3-Chloro-4-(3,3-dimethyl-but-1-ynyl)-phenyl]-1H-[1,2,4]triazole-3,5-diamine], the EC50 in test [1] is 1.12 µM; in test [2] it was 11.2 µM; in test [3], 91.6 µM.
With `Cc1c(Cl)cc(Nc2n[nH]c(N)n2)cc1Cl` [Compound I-38, N*3*-(3,5-Dichloro-4-methyl-phenyl)-1H-[1,2,4]triazole-3,5-diamine], the EC50 in test [1] stood at 0.023 µM; in test [2] it was 0.75 µM; in test [3], 79.4 µM.
With `Nc1nc(Nc2ccc3ccccc3c2)n[nH]1` [Compound I-18, N*3*-Naphthalen-2-yl-1H-[1,2,4]triazole-3,5-diamine], the values for the EC50 in test [1], in test [2] and in test [3] were 2.95 µM, 27.5 µM and 100 µM, respectively.
As to `Nc1nc(Nc2cc(Cl)cc(C(F)(F)F)c2)n[nH]1` [Compound I-50, N^3-(3-Chloro-5-trifluoromethyl-phenyl)-1H-[1,2,4]triazole-3,5-diamine], the EC50 in test [1] came to 0.094 µM; in test [2], 1.1 µM; in test [3], 100 µM.
For `Nc1nc(Nc2cc(Cl)c(F)c(C(F)(F)F)c2)n[nH]1` [Compound I-60, N^3-(3-Chloro-4-fluoro-5-trifluoromethyl-phenyl)-1H-[1,2,4]triazole-3,5-diamine], the EC50 in test [1] was found to be 0.071 µM; in test [2] it was 0.489 µM; in test [3], 33.3 µM.
Consider `CN(C)S(=O)(=O)c1ccc(Nc2n[nH]c(N)n2)cc1` [Compound I-26, 4-(5-Amino-1H-[1,2,4]triazol-3-ylamino)-N,N-dimethyl-benzenesulfonamide], for which the half-maximal effective concentration (EC50) in test [1], in test [2] and in test [3] was 100 µM each time.
As to `Nc1nc(Nc2cc(F)cc(S(F)(F)(F)(F)F)c2)n[nH]1` [Compound I-73, N*3*-(3-Fluoro-5-pentafluorosulfur-phenyl)-1H-[1,2,4]triazole-3,5-diamine], the EC50 in test [1] stood at 0.035 µM; in test [2], 0.188 µM; in test [3] it was 100 µM.
